What was measured:
[1] = test system: H3K4me3 mark; experiment: Histone lysine demethylase immunofluorescence assay, non-transfected U2OS cells; format: cell-based; details: Homo sapiens, staining of the H3K4me3 mark, 20 hours incubation with compound
Procedure, shortened: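 Non-transfected U2OS cells incubated with compounds 20 h in DMEM/5% FBS. Fixed cells immunostained for H3K4me3 with Hoechst counterstain and imaged by high-throughput microscopy. IC50 based on average cellular H3K4me3 staining.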

[2] = molecular target: T1, KDM4A (Homo sapiens, UniProt O75164); experiment: Histone lysine demethylase immunofluorescence assay, U2OS cells transfected with KDM4A; format: cell-based; details: U2OS cells transfected with pCMVHA KDM4A; mark detected H3K9me3; 20 hours
T1 construct: Full length; host or cells: U2OS
T1 sequence (O75164 1-1064): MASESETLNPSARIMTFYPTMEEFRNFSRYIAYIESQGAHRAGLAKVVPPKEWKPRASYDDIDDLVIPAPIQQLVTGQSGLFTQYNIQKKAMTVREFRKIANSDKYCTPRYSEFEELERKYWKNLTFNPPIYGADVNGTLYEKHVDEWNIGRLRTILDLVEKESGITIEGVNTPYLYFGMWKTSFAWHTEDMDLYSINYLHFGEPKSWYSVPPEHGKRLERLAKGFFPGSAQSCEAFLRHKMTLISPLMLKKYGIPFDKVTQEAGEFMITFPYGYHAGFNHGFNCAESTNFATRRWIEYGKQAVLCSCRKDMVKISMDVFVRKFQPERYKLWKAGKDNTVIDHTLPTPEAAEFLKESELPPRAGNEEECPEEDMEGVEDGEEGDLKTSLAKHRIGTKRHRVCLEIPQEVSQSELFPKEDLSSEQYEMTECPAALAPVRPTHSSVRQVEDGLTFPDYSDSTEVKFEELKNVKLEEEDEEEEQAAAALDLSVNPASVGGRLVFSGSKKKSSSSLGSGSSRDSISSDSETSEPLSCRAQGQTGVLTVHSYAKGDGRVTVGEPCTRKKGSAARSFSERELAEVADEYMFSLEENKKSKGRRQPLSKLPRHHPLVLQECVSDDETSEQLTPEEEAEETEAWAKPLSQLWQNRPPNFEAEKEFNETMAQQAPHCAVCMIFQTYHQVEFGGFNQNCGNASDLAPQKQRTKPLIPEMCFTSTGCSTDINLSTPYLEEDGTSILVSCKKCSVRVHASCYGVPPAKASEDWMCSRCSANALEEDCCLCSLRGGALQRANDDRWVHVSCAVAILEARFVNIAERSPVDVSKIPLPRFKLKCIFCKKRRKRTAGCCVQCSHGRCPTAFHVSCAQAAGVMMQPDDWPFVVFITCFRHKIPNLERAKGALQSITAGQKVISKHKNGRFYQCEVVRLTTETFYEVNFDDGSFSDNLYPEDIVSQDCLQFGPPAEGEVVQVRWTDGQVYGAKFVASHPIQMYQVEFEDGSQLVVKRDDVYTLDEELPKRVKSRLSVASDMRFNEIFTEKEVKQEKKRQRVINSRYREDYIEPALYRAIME
Protocol: U2OS cells were seeded 24 hours before transfection. Transfection was performed with Fugene HD transfection reagent as recommended by the manufacturer. 6 hours after transfection, the cells were harvested and seeded into multi well plates into media containing compound. The media used was DMEM containing 10% FBS and pen/strep. 20 hours after incubation of cells with compounds, the cells were washed in PBS, harvested by fixation with formaldehyde 4% aqueous solution, and washed in PBS. Subsequently, the cells were permeabilized in PBS with 0.2% Triton X-100 for. Blocking was performed in PBS with 0.2% Triton X-100 and 5% FBS. The cells were incubated with primary antibodies in blocking solution over night at 4° C. The primary antibodies used in the assays were HA.11 (Covance, MMS-101P) and the antibody detecting the mark specified in the table below. After incubation with primary antibodies, the cells were washed with PBS, incubated with secondary antibodies (Alexa fluor 594 goat anti rabbit IgG, Invitrogen, A11012; Alexa flour 488 donkey anti mouse IgG, Invitrogen, A21202) and Hoechst, (Sigma, 33342) in blocking solution, and washed again with PBS. Finally, PBS was added and high throughput imaging and analysis were performed by an IN Cell Analyzer 1000 (GE Healthcare). The robot software analyzed individual cells and divided these into HA+ (transfected cells) and HA− (non-transfected cells). The IC50 values were based on an average measure of the staining of the mark specified in the table below in the transfected cells.

Question: Which IC50 [1] does the source give for `COc1ccccc1CN1CCC(NC(=O)CNCc2cc(CNC3CC3)ccn2)CC1` [Compound 20, 2-[({4-[(cyclopropylamino)-methyl]pyridin-2-yl}methyl)amino]-N-{1-[(2-methoxyphenyl)methyl]-piperidin-4-yl}acetamide] here?
Answer: 250 to 2500 nM

Question: And the IC50 [2]?
Answer: > 2500 nM

Question: Which IC50 [1] does the source give for `CCN(CC)CCCCNCc1cc(C2NCCCN2C)ccn1` (stereo not shown) [Compound 68, [4-(diethylamino)butyl]({[4-(1-methyl-1,3-diazinan-2-yl)pyridin-2-yl]methyl})amine] here?
Answer: < 250 nM

Question: For `O=Cc1ccnc(CNCCCCN(Cc2ccccc2)C2CC2)c1` [Compound 109, 2-[({4-[benzyl-(cyclopropyl)amino]-butyl}amino)methyl]-pyridine-4-carbaldehyde], which IC50 [2] is on record?
Answer: > 2500 nM
